Source: patent US9521847B2, “Synergistic weed control from applications of pyridine carboxylic acid herbicides and synthetic auxin herbicides and/or auxin transport inhibitors” (Dow AgroSciences LLC, priority 2014, dated 2016)
Like-named read-outs stand apart in the source and are kept apart here.

How the values were obtained:
[1] = test system: pigweed (AMARE, Amaranthus retroflexus); test: Greenhouse postemergence trial, % visual injury; format: in vivo; details: for % visual injury, Obs: AMARE
[2] = test system: winter rape (BRSNW, Brassica napus); test: Greenhouse postemergence trial, % visual injury; format: in vivo
[3] = test system: common lambsquarters (CHEAL, Chenopodium album L.); test: Greenhouse postemergence trial, % visual injury; format: in vivo; details: Chenopodium album, post-emergence; 140 g ae/ha alone; 20-22 d; read-out: % visual injury Obs
[4] = test system: kochia (KCHSC, Kochia scoparia); test: Greenhouse postemergence trial, % visual injury; format: in vivo
Method: Following the protocol in Example 1, compound 1 and compound 2 were combined with 2,4 D EHE (EC) and applied to kochia (KCHSC, Kochia scoparia) and the phytotoxicity of the herbicidal compositions was measured.
Following the protocol in Example 1, compound 1 (EC) and Compound 2 (SC) were combined with diflufenzopyr and applied to kochia (Kochia scoparia, KCHSC) and the phytotoxicity of the herbicidal composition was measured.

[5] = test system: velvetleaf (Abutilon theophrasti, ABUTH); test: Greenhouse postemergence trial, % visual injury; format: in vivo; details: 140 g ae/ha alone; 20-22 d
[6] = test system: nutsedge (Cyperus esculentus, CYPES); test: Greenhouse postemergence trial, % visual injury; format: in vivo
[7] = test system: sunflower (Helianthus annus, HELAN); test: Greenhouse postemergence trial, % visual injury; format: in vivo; details: 140 g ae/ha alone; 20-22 d
[8] = test system: wild buckwheat (Polygonum convolvulus, POLCO); test: Greenhouse postemergence trial, % visual injury; format: in vivo
[9] = test system: grain sorghum (Sorghum vulgare, SORVU); test: Greenhouse postemergence trial, % visual injury; format: in vivo
[10] = test system: common chickweed (Stellaria media, STEME); test: Greenhouse postemergence trial, % visual injury; format: in vivo
[11] = test system: Russian thistle (Salsola iberica, SASKR); test: Greenhouse postemergence trial, % visual injury; format: in vivo
[12] = test system: wild mustard (Sinapis arvensis, SINAR); test: Greenhouse postemergence trial, % visual injury; format: in vivo
spring barley (HORVS) = details: in vivo
maize (ZEAMX) = details: in vivo
common rice (ORYSA) = details: in vivo
[13] = test system: Canadian thistle (CIRAR, Cirsium arvense); test: Greenhouse postemergence trial, % visual injury; details: Cirsium arvense, post-emergence;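 further: plants sprayed at second to third true leaf stage, injury scored visually 20-22 d later against solvent-blank sprayed controls, 0 meaning no injury and 100 complete kill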
[14] = test system: spring rape (Brassica napus, BRSNN); test: Greenhouse postemergence trial, % visual injury; details: Brassica napus, post-emergence
[15] = test system: poinsettia (Euphorbia heterophylla, EPHHL); test: Greenhouse postemergence trial, % visual injury; details: for pest or weed control at 140 g/ha: Euphorbia heterophylla, post-emergence
[16] = test system: wild pansy (Viola tricolor, VIOTR); test: Greenhouse postemergence trial, % visual injury
[17] = test system: ivyleaf morningglory (Ipomoea hederacea, IPOHE); test: Greenhouse postemergence trial, % visual injury; details: Ipomoea, post-emergence, read-out: % visual injury, Obs, IPOHE, 140 g ae/ha
[18] = Hordeum vulgare (spring barley)
[19] = read-out: % visual injury (Obs)

With `CCCCC(CC)COC(=O)COc1ccc(Cl)cc1Cl` (centres unmarked) [2,4-D EHE, 2-ethylhexyl (2,4-dichlorophenoxy)acetate, reference compound] the “% visual injury, Obs” value ([1]; 140 g ae/ha) was 75%, the “% visual injury, Obs” value ([1]; 400 g ae/ha) was 80% and the pest or weed control at 140 g/ha ([1]; Amaranthus retroflexus, post-emergence, 140 g ae/ha alone, 20-22 d, read-out: % visual injury Obs) was 95%. For the same compound, the pest or weed control at 280 g/ha ([1]; Amaranthus retroflexus, post-emergence, 280 g ae/ha alone, 20-22 d, read-out: % visual injury Obs) was 30%, the “% visual injury (Obs)” value ([2]; 2,4-D EHE 400 g ae/ha) was 93% and the “% visual injury Obs” value ([2]; 280 g ae/ha alone, 20-22 d) was 85%. The “% visual injury, Obs” value ([2]; BRSNW, 400 g ae/ha) was 93%, the pest or weed control at 140 g/ha [3] was 73% and the “% visual injury (Obs)” value ([4]; 2,4-D EHE 400 g ae/ha) was 10%. For the same compound, the “% visual injury Obs” value ([4]; 280 g ae/ha alone, 20-22 d) was 10%, the pest or weed control at 400 g/ha ([4]; Bassia scoparia, post-emergence, KCHSC, 400 g ae/ha, read-out: % visual injury, Obs) was 50% and the “% visual injury Obs” value [5] was 55%. For the same compound, the “% visual injury (Obs)” value ([6]; 2,4-D EHE 140 g ae/ha) was 0%, the “% visual injury, Obs” value ([6]; CYPES, 140 g ae/ha) was 10% and the pest or weed control at 140 g/ha ([6]; Cyperus, post-emergence, 140 g ae/ha alone, 20-22 d, read-out: % visual injury Obs) was 0%. The “% visual injury Obs” value [7] was 75%, the “% visual injury (Obs)” value ([8]; 2,4-D EHE 400 g ae/ha) was 80% and the “% visual injury (Obs)” value ([8]; 2,4-D EHE 420 g ae/ha) was 60%. For the same compound, the “% visual injury Obs” value ([8]; 140 g ae/ha alone, 20-22 d) was 55%, the “% visual injury (Obs)” value ([9]; 2,4-D EHE 140 g ae/ha) was 0% and the “% visual injury Obs” value ([9]; 140 g ae/ha alone, 20-22 d) was 0%. For the same compound, the “% visual injury (Obs)” value ([10]; 2,4-D EHE 400 g ae/ha) was 10%, the “% visual injury Obs” value ([10]; 140 g ae/ha alone, 20-22 d) was 63% and the “% visual injury (Obs)” value ([11]; 2,4-D EHE 400 g ae/ha) was 70%. For the same compound, the “% visual injury, Obs” value ([11]; SASKR, 400 g ae/ha) was 70%, the “% visual injury (Obs)” value ([12]; 2,4-D EHE 400 g ae/ha) was 97% and the “% visual injury, Obs” value ([12]; SINAR, 400 g ae/ha) was 97%. The “% visual injury (Obs)” value (spring barley (HORVS); [18]) was 0%, the “% visual injury Obs” value (spring barley (HORVS); [18]) was 0% and the “% visual injury (Obs)” value (spring barley (HORVS); spring barley (Hordeum vulgare)) was 10%. For the same compound, the “% visual injury Obs” value (maize (ZEAMX); Zea mays (maize)) was 0%, the “% visual injury (Obs)” value (maize (ZEAMX); maize (Zea mays)) was 0% and the “% visual injury, Obs” value (maize (ZEAMX); maize (Zea mays)) was 0%. For the same compound, the “% visual injury (Obs)” value (common rice (ORYSA)) was 0%, the “% visual injury, Obs” value (common rice (ORYSA)) was 10% and the pest or weed control at 140 g/ha [13, 19] was 50%. It also gave a pest or weed control at 400 g/ha [13, 19] of 70%, a pest or weed control at 140 g/ha ([13]; read-out: % visual injury Obs) of 50% and a pest or weed control at 280 g/ha ([13]; read-out: % visual injury Obs) of 73%. It also gave a plant injury at 140 g/ha [14, 19] of 60%, a plant injury at 400 g/ha [14, 19] of 75% and a plant injury at 140 g/ha ([14]; read-out: % visual injury Obs) of 60%. For the same compound, the plant injury at 140 g/ha ([14]; read-out: % visual injury, Obs) was 65%, the “% visual injury (Obs)” value ([15]; 2,4-D EHE 400 g ae/ha) was 60% and the pest or weed control at 140 g/ha ([15]; read-out: % visual injury Obs, 140 g ae/ha alone, 20-22 d) was 35%. For the same compound, the pest or weed control at 140 g/ha ([15]; read-out: % visual injury, Obs, EPHHL, 140 g ae/ha) was 5%, the “% visual injury (Obs)” value ([16]; 2,4-D EHE 140 g ae/ha) was 35% and the “% visual injury (Obs)” value ([16]; 2,4-D EHE 400 g ae/ha) was 65%. The pest or weed control at 140 g/ha ([16]; Viola tricolor, post-emergence, read-out: % visual injury Obs) was 35% and the pest or weed control at 140 g/ha [17] was 93%.
